Laboratory results from patent US20070213291A1, “Therapeutically useful synthetic oligonucleotides” (priority 1999, published 2007).
Where “and” joins values, the source holds several entries; their conditions need not be identical. Equal values may be shown once.

How the values were obtained:
Assay type in all cases: cell-based
[1] = test system: Jurkat human leukemia T cells; experiment: Inhibition of Jurkat human leukemia T cell proliferation (MTT reduction); conditions: for % INHIBITION of Jurkat proliferation at suboptimal concentration: 5.0 μg/ml of each 6 base sequence, alone or two together; for % INHIBITION of Jurkat human leukemia T cell proliferation: 100 μg/ml sequence, 48 h, 2.5×10^5 cells/ml
Method in brief: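 Read-out is MTT absorbance at 570 nm after 48 h. Sequences of 2 to 45 bases (A, C, G, T) tested at 100 μg/ml against untreated control, with 2.5×10^5 Jurkat cells/ml held at 37° C under 5% CO2.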

[2] = test system: HL-60 human promyelocytic leukemia cells; experiment: Inhibition of HL-60 cell proliferation (MTT); conditions: 100 μg/ml, 48 h
Procedure: (§1) Cells were seeded in 6 (1 ml/well), 24 (0.5 ml/well) or 96 (0.1 ml/well) well flat-bottom microplates and were maintained at 37° C. in a 5% CO2 atmosphere. Unless stated otherwise, 2.5×10^5 cells/ml were incubated with 0 μg/ml (control) and 100 μg/ml (treated) of 2 to 45 base sequences containing A, C, G and T for 48 h.
(§2) Cell proliferation was measured using dimethylthiazol-diphenyl-tetrazolium (MTT) reduction (Mosman et al. J. Immunol. Methods 65:55, 1983). MTT was measured at a wavelength of 570 nm using a multiplate spectrophotometer reader (ELX800, Bio-TEK Instruments Inc., Winooski, Vt.).
HL-60 promyelocytic leukemia cells are a p53 mutated human suspension tumor model. HL-60 cells were incubated with 6 base GT sequences (Table 6).

[3] = test system: LNCaP human prostate cancer cells; experiment: Inhibition of LNCaP cell proliferation (MTT); conditions: 100 μg/ml, 48 h, 5×10^5 cells/ml
Method in brief: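 Cells (2.5×10^5 or 5×10^5 cells/ml) exposed to 100 μg/ml of 2–45 base A/C/G/T sequences, including 6-base GT sequences, versus untreated control, 48 h at 37 °C, 5% CO2. Proliferation read by MTT reduction at 570 nm.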

[4] = test system: THP-1 human acute monocytic leukemia cells; experiment: Inhibition of THP-1 cell proliferation (MTT); conditions: 100 μg/ml, 48 h, 1.6×10^6 cells/ml
Procedure: as §1, §2
THP-1 acute monocytic leukemia cells are a p53 null human suspension tumor model. THP-1 cells (1.6×10^6 cells/ml) were incubated with 6 base GT sequences (Table 10).

[5] = test system: Jurkat human leukemia T cells; experiment: Cell cycle stage in Jurkat cells (propidium iodide flow cytometry); conditions: 24 h
Method in brief: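 Phase distribution (G0/G1, early, mid and late S, G2/M) came from flow cytometry with doublet discrimination on propidium iodide-stained nuclei. Jurkat cells were given 24 h exposure to 2–45-base oligonucleotides, or at 1×10^6 cells/ml to single 6-base GT or AC strands heated 10 min at 65 °C or 1:1 hybridized duplex.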

[6] = test system: Jurkat human leukemia T cells; experiment: Apoptosis by phosphatidylserine/annexin V-FITC flow cytometry; conditions: 50 μM sequence
Method in brief: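 Jurkat cells were exposed to 3–7-base oligonucleotides (GT, ACGT, AG, GG, AGT, CGT sequences) at 50 μM. Separately, 6-base GT and complementary AC sequences, alone or hybridized 1:1 (10 min, 65 °C), were applied for 24 h. Phosphatidylserine exposure was quantified by flow cytometry with FITC-annexin V.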

[7] = test system: human peripheral blood mononuclear cells; experiment: Cytokine production by human PBMC (ELISA); conditions: PBMC of 7 healthy humans, 100 μg/ml, 48 h
Method in brief: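 PBMC from 7 healthy donors, Ficoll-isolated; 1×10^6 cells incubated with 100 μg/ml oligonucleotide sequence for 48 h at 37 °C, 5% CO2. IL-1beta, IL-6, IL-10, IL-12 (p70 plus free p40) and TNF-alpha measured by ELISA in supernatant, expressed as fold increase over control cells.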

rhesus monkey PBMCs = experiment: Cytokine production by rhesus monkey PBMC (ELISA); conditions: PBMC of 4 healthy rhesus monkeys, 100 μg/ml, 48 h
Method in brief: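 Peripheral blood mononuclear cells taken from 4 healthy rhesus monkeys were cultured at 1×10^6 cells with 100 μg/ml of each test sequence for 48 h at 37° C. under 5% CO2. Cytokine levels in 100 μl of supernatant were quantified in pg/ml by commercial ELISA and reported as fold increase over untreated control cells.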

[8] = Jurkat 1×10^6 cells/ml, sequences heated 10 minutes at 65° C.

## GGGTGG [SEQ ID NO:25]
[1]
  % INHIBITION of Jurkat proliferation at suboptimal concentration: 5%
  % INHIBITION of Jurkat human leukemia T cell proliferation: 60%
[1]; 5-fluorouracil 0.1 μg/ml, alone or with sequence at 1.0 μg/ml
  % INHIBITION of Jurkat proliferation, 5-Fluorouracil 0.1 μg/ml: 10%
[1]; 5-fluorouracil 1.0 μg/ml, alone or with sequence at 1.0 μg/ml
  % INHIBITION of Jurkat proliferation, 5-Fluorouracil 1.0 μg/ml: 21%
[1]; 5-fluorouracil 10.0 μg/ml, alone or with sequence at 1.0 μg/ml
  % INHIBITION of Jurkat proliferation, 5-Fluorouracil 10.0 μg/ml: 40%
[1]; Jurkat proliferation, PHARM/PCS-4 Software
  relative potency versus AGT SEQ ID NO:49: 3.4 times
[1]; cisplatin 0.1 μg/ml, alone or with sequence at 1.0 μg/ml
  % INHIBITION of Jurkat proliferation, Cisplatin 0.1 μg/ml: 14%
[1]; cisplatin 1.0 μg/ml, alone or with sequence at 1.0 μg/ml
  % INHIBITION of Jurkat proliferation, Cisplatin 1.0 μg/ml: 38%
[1]; cisplatin 10.0 μg/ml, alone or with sequence at 1.0 μg/ml
  % INHIBITION of Jurkat proliferation, Cisplatin 10.0 μg/ml: 76%
[1]; sequence 1.0 μg/ml, 0.1 and 1.0 μg/ml 5-fluorouracil
  potentiation of antineoplastic effect of 5-fluorouracil on Jurkat T cell proliferation: potentiated
[1]; sequence 1.0 μg/ml, 0.1 and 1.0 μg/ml cisplatin
  potentiation of antineoplastic effect of cisplatin on Jurkat T cell proliferation: potentiated
[1]; sequence at 1.0 μg/ml, 5-fluorouracil 0.0 μg/ml
  % INHIBITION of Jurkat proliferation, 5-Fluorouracil 0.0 μg/ml: 0%
[1]; sequence at 1.0 μg/ml, cisplatin 0.0 μg/ml
  % INHIBITION of Jurkat proliferation, Cisplatin 0.0 μg/ml: 0%
[2]
  % INHIBITION of HL-60 human promyelocytic leukemia cell proliferation: 35%
[3]
  % INHIBITION of LNCaP human prostate cancer cell proliferation: 18%
[4]
  % INHIBITION of THP-1 human acute monocytic leukemia cell proliferation: 15%
[5]; [8]
  % cells in phase: G0/G1: 28.0%
  % cells in phase: G2/M: 0.9%
  % cells in phase: SE: 45.8%
  % cells in phase: SL: 11.3%
  % cells in phase: SM: 14.0%
  Arrest (cell cycle): induced arrest at the end of the SE phase of the cell cycle
[5]; Jurkat, 100 μg/ml
  % of cells in phase: G0/G1: 28.5%
  % of cells in phase: G2/M: 0.0%
  % of cells in phase: SE: 46.3%
  % of cells in phase: SL: 10.7%
  % of cells in phase: SM: 14.6%
  Arrest (cell cycle): End SE
[6]
  % of cells in apoptosis (positive for PS/A-V staining): 27%
[7]
  IL-1 beta fold increase: mean +/− SD: 1.0 +/− 0.1 fold increase
  IL-6 fold increase: mean +/− SD: 20.9 +/− 18.0 fold increase
  IL-10 fold increase: mean +/− SD: 11.6 +/− 1.2 fold increase
  IL-12 fold increase: mean +/− SD: 13.2 +/− 11.5 fold increase
Rhesus monkey PBMCs
  IL-10 fold increase: mean +/− SD: 1.0 +/− 0.1 fold increase
  IL-12 fold increase: mean +/− SD: 10.6 +/− 4.7 fold increase
  TNF-alpha fold increase: mean +/− SD: 12.5 +/− 5.2 fold increase

## GTGTGT [SEQ ID NO:10]
[1]
  % INHIBITION of Jurkat proliferation at suboptimal concentration: 2%
  % INHIBITION of Jurkat human leukemia T cell proliferation: 44% and 48%
[2]
  % INHIBITION of HL-60 human promyelocytic leukemia cell proliferation: 13%
[3]
  % INHIBITION of LNCaP human prostate cancer cell proliferation: −4%
[4]
  % INHIBITION of THP-1 human acute monocytic leukemia cell proliferation: 11%
[5]; Jurkat, 100 μg/ml
  % of cells in phase: G0/G1: 30.8%
  % of cells in phase: G2/M: 0.3%
  % of cells in phase: SE: 41.9%
  % of cells in phase: SL: 10.2%
  % of cells in phase: SM: 16.8%
  Arrest (cell cycle): End SE
[6]
  % of cells in apoptosis (positive for PS/A-V staining): 33%
[7]
  IL-1 beta fold increase: mean +/− SD: 2.0 +/− 1.6 fold increase
  IL-6 fold increase: mean +/− SD: 9.8 +/− 14.2 fold increase
  IL-10 fold increase: mean +/− SD: 1.0 +/− 0.1 fold increase
  IL-12 fold increase: mean +/− SD: 4.0 +/− 6.3 fold increase
Rhesus monkey PBMCs
  IL-10 fold increase: mean +/− SD: 1.3 +/− 0.1 fold increase
  IL-12 fold increase: mean +/− SD: 10.7 +/− 4.1 fold increase
  TNF-alpha fold increase: mean +/− SD: 16.1 +/− 4.2 fold increase

## TTGTTT [SEQ ID NO:26]
[1]
  % INHIBITION of Jurkat proliferation at suboptimal concentration: −2%
  % INHIBITION of Jurkat human leukemia T cell proliferation: 34%
[2]
  % INHIBITION of HL-60 human promyelocytic leukemia cell proliferation: 16%
[3]
  % INHIBITION of LNCaP human prostate cancer cell proliferation: 22%
[4]
  % INHIBITION of THP-1 human acute monocytic leukemia cell proliferation: 1%
[5]; Jurkat, 100 μg/ml
  % of cells in phase: G0/G1: 32.6%
  % of cells in phase: G2/M: 32.4%
  % of cells in phase: SE: 11.5%
  % of cells in phase: SL: 10.7%
  % of cells in phase: SM: 12.8%
  Arrest (cell cycle): END G2/M
[6]
  % of cells in apoptosis (positive for PS/A-V staining): 14%
[7]
  IL-1 beta fold increase: mean +/− SD: 1.5 +/− 0.9 fold increase
  IL-6 fold increase: mean +/− SD: 5.8 +/− 8.0 fold increase
  IL-10 fold increase: mean +/− SD: 1.0 +/− 0.1 fold increase
  IL-12 fold increase: mean +/− SD: 1.6 +/− 1.3 fold increase
Rhesus monkey PBMCs
  IL-10 fold increase: mean +/− SD: 1.0 +/− 0.1 fold increase
  TNF-alpha fold increase: mean +/− SD: 2.1 +/− 1.0 fold increase
